Assay results published in EP4809830A1, “USE OF 2'-FUCOSYLLACTOSE IN PROMOTING INTESTINAL DEVELOPMENT AND PREVENTING INTESTINAL DAMAGE” (Ausnutria Dairy (China) Co., Ltd., priority 2024, dated 2025).

How the values were obtained:
[1] = system: Caco-2 cells; assay: Effects of 2'-FL on glycocalyx development in intestinal epithelial cells (qPCR of glycocalyx development genes); type: cell-based, human
Method: (§1) Caco-2 cell culture: human colon adenocarcinoma cells Caco-2 were cultured in MEM complete medium containing 20% high-quality fetal bovine serum, grown in 25 cm^2 cell culture flasks and incubated in a carbon dioxide incubator at 37 °C, 5% CO2, and 95% relative humidity. The culture medium was changed every one or two days. When the cells reach 80%-90% confluence, the cells were digested with 0.25% trypsin digestion solution and subcultured at a ratio of 1:3.
1.1 Experiments: Caco-2 cells were adjusted to a density of 1 × 10^5 cells/cm^2 and inoculated in 24-well plates. According to groups, 2'-FL at concentrations of 0.6 mg/mL, 1.2 mg/mL, and 2.4 mg/mL was added to MEM complete medium, respectively. After incubation for 3 days, MEM medium was served as a blank control. Total RNA was extracted from the cells and reverse transcribed. Transcriptional levels of genes related to glycocalyx development, including glypican 1 (gpc1), hyaluronic acid synthases (has1, has2 and has3), and exostosin glycosyltransferases (ext1 and ext2) in the Caco-2 cells were measured by qPCR. qPCR primer sequences were shown in Table 1.
(§2) qPCR kit manufacturer: Nanjing Vazyme Biotechnology Co., Ltd.; Catalog number: AceQ Universal U+ Probe Master Mix V2; amplification program: step 1: 37 °C for 2 min, and cycle number 1; step 2: 95 °C for 5 min, and cycle number 1; and step 3: 95 °C for 10 s, 60°C for 30 s, and cycle number 45.

[2] = system: Caco-2 cells; assay: Preventive effects of 2'-FL on glycocalyx damage caused by LPS (qPCR of glycocalyx development genes); type: cell-based, human; details: for transcriptional level of gpc1: then 100 ng/mL LPS 24 h; for transcriptional level of ext2 / transcriptional level of has2 / transcriptional level of has3 / transcription level of has1 / transcriptional level of ext1: then LPS
Method: as §1, §2
2.1 Experiments: Caco-2 cells were adjusted to a density of 1 × 10^5 cells/cm^2 and inoculated in 24-well plates. According to groups, 2'-FL at concentrations of 0.6 mg/mL, 1.2 mg/mL, and 2.4 mg/mL was added to MEM complete medium, respectively. After incubation for 3 days, culture supernatant was removed, and fresh MEM complete medium with a final concentration of 100 ng/mL LPS was added and they are co-incubated for 24 h. Cells with added LPS but without 2'-FL were designated as a model group, and cells without added LPS or 2'-FL were designated as a blank group. Total RNA was extracted from the cells and reverse transcribed. Transcriptional levels of genes related to glycocalyx development, including glypican 1 (gpc1), hyaluronic acid synthases (has1, has2 and has3), and exostosin glycosyltransferases (ext1 and ext2), in the Caco-2 cells were measured by qPCR.

[3] = all three concentrations of 2'-FL (0.6, 1.2, 2.4 mg/mL), 3 days, vs blank control, p < 0.05
[4] = of 0.6, 1.2, 2.4 mg/mL tested, effect decreases with increasing concentration
[5] = summary statement, 0.6mg/mL-1.2 mg/mL
[6] = 2.4 mg/mL 2'-FL, compared to the model group, p < 0.05
[7] = different concentrations of 2'-FL 3 days, compared with the blank group
[8] = prevention group with different concentrations of 2'-FL, vs the blank group, p > 0.05
[9] = summary statement, 0.6mg/mL-2.4 mg/mL

## C[C@@H]1O[C@@H](O[C@H]2[C@H](O[C@H]3[C@H](O)[C@@H](O)C(O)O[C@@H]3CO)O[C@H](CO)[C@H](O)[C@@H]2O)[C@@H](O)[C@H](O)[C@@H]1O (stereo partly shown) [2'-FL, 2'-fucosyllactose]
[1]; [3]
  transcriptional level of ext1 mRNA: significantly upregulate
  transcriptional level of ext2 mRNA: significantly upregulate
  transcriptional level of gpc1 mRNA: significantly upregulate
  transcriptional level of has1 mRNA: significantly upregulate
  transcriptional level of has2 mRNA: significantly upregulate
  transcriptional level of has3 mRNA: significantly upregulate
[1]; [4]
  concentration at which the upregulation effect on the transcriptional level of ext1 reaches a maximum: 0.6 mg/mL
  concentration at which the upregulation effect on the transcriptional level of ext2 reaches a maximum: 0.6 mg/mL
  concentration at which the upregulation effect on the transcriptional level of has1 reaches a maximum: 0.6 mg/mL
  concentration at which the upregulation effect on the transcriptional level of has2 reaches a maximum: 0.6 mg/mL
  concentration at which the upregulation effect on the transcriptional level of has3 reaches a maximum: 0.6 mg/mL
[1]; of 0.6, 1.2, 2.4 mg/mL tested, first increasing and then decreasing
  concentration at which the upregulation effect on the transcriptional level of gpc1 reaches a maximum: 1.2 mg/mL
[1]; summary statement, 0.6 mg/mL
  transcriptional level of ext1: significantly upregulate
  transcriptional level of ext2: significantly upregulate
  transcriptional level of has1: significantly upregulate
  transcriptional level of has2: significantly upregulate
  transcriptional level of has3: significantly upregulate
[1]; [5]
  transcriptional level of gpc1: significantly upregulate
[2]; 0.6 mg/mL 2'-FL 3 days, compared with the blank group
  transcriptional level of gpc1: significantly upregulate
[2]; 1.2 mg/mL 2'-FL 3 days, compared with the blank group
  transcriptional level of gpc1: significantly upregulate
[2]; 1.2 mg/mL 2'-FL, p<0.05
  transcriptional level of ext2: significantly upregulate
[2]; [6]
  transcriptional level of has2: significantly upregulated
  transcriptional level of has3: significantly upregulated
[2]; 2.4 mg/mL 2'-FL, compared with the model group
  transcription level of has1: significantly upregulated
[2]; 2.4 mg/mL 2'-FL, p<0.05
  transcriptional level of ext2: significantly upregulate
[2]; [7]
  transcriptional level of ext1: still upregulated
  transcriptional level of ext2: still upregulated
[2]; different concentrations of 2'-FL (0.6, 1.2, 2.4 mg/mL) 3 days, compared with the blank group
  transcriptional level of gpc1: still upregulated
[2]; [8]
  transcriptional level of has2: no significant differences
  transcriptional level of has3: no significant differences
[2]; prevention groups with different concentrations of 2'-FL (0.6, 1.2, 2.4 mg/mL), compared with the blank group, p < 0.05
  transcription level of has1: significantly downregulated
[2]; [5]
  downregulation of the transcriptional level of gpc1 caused by LPS: significantly prevent downregulation
[2]; [9]
  downregulation of the transcriptional level of ext1 caused by LPS: significantly prevent downregulation
  downregulation of the transcriptional level of ext2 caused by LPS: significantly prevent downregulation
  downregulation of the transcriptional level of has2 caused by LPS: significantly prevent downregulation
  downregulation of the transcriptional level of has3 caused by LPS: significantly prevent downregulation
[2]; three concentrations of 2'-FL (0.6, 1.2, 2.4 mg/mL), p<0.05
  transcriptional level of ext1: significantly upregulate
